Reference: patent US20230302022A1, “PREVENTING OR MITIGATING CHEMOTHERAPY INDUCED ALOPECIA USING VITAMIN D” (priority 2016, published 2023)
“And” between values parts separate entries of the source, which are not always exact repeats. Equal values may be shown once.

What was measured:
[1] = test system: EMT-6 murine breast tumor; conditions: topical pretreatment + cyclophosphamide vs either agent alone; cited from earlier work
patients = assay: Phase I dose-escalation study: safety and tolerability in cancer patients on taxane-based chemotherapy; type: in vivo
Method: The dosage will be escalated if the clinical toxicity is declared acceptable (see below). five dose levels will be considered for escalation (10, 20, 40, 60 and 80 μg/mL). Determination of dose limiting toxicity (DLT, defined in section 8.2) will be made during the first 28 days of topical treatment. No intrapatient dose escalation will be performed. […] The dose escalation scheme (Table 8.1) will occur as follows:
If the patient presents with symptoms of hypercalcemia, serum calcium should be determined and treatment should be stopped immediately. Hypercalcemia will be defined using CTCAE version 4.0 grade 3 (or higher), which is defined as serum calcium >12.5-13.5 mg/dL; >3.1-3.4 mmol/L or ionized calcium >1.6-1.8 mmol/L and hospitalization is indicated. For patients with asymptomatic hypercalcemia determined by elevated serum calcium, their ionized calcium levels will first be checked. If the ionized calcium level is in fact elevated, the study drug will be stopped. If the ionized calcium level is normal, the patient will remain on the study and ionized calcium will be followed rather than serum calcium.
(§1) Each patient underwent PK analysis, adverse event monitoring, patient self-assessment diaries (1-10 scale), and blinded photographic assessments. […] Toxicity was determined on a weekly basis during Cycle 1 (i.e., the first 28 days of topical agent application) and subsequently every four weeks. Patients were managed with adequate safety (adverse event) monitoring and pharmacokinetic (PK) analysis in order to determine levels of exposure.

HEKa cells [2] = assay: Real-time PCR Heat Shock Protein array, calcitriol-treated HEKa cells; type: cell-based, human; conditions: 0.1 μg/mL calcitriol, two independent experiments
Method: (§2) The PCR array analysis utilized two groups of genes—those related to Heat Shock Proteins (SABiosciences), and those related to Neuroscience Ion Channels and Transporters (SABioscience). Cell culture: Primary human epidermal keratinocytes (HEKa) were maintained in Epilife Medium (Cascade Biologics, Inc., Portland OR) along with Human Keratinocyte Growth Supplement (Cascade Biologics, Inc., Portland OR). […] D3 treatment of HEKa cells: […] Vehicle control group of cells were treated with 5 mL media containing 1 μL of ethanol. Cells were harvested 3, 6, 16, 24, 48, or 72 hours after the start of the treatment. RNA isolation: Cells were lysed for RNA isolation at different treatment times using the RNeasy Mini kit (Qiagen, Inc., Valencia CA) following the manufacturer's instructions. RNA was quantified by measuring optical density at 260 nm. First Strand Synthesis: […] Real-time PCR: Products from the first strand synthesis were diluted with water, mixed with the SYBR green master mix (SABiosciences., Frederick MD) and loaded onto PCR arrays. Real time PCR was run on the PCR Arrays (Heat Shock Protein Arrays, and Neuroscience and Ion Channel Arrays) (SABiosciences, Frederick MD) on a Biorad CFX96. Data analyses were performed using the PCR array data analysis software available on the SABiosciences website.

[3] = Preliminary animal toxicology study; type: in vivo; conditions: dose of about 100 μg
chloroleukemia C51 cells = conditions: 0.2 μg pretreatment prior to cyclophosphamide; cited from earlier work
[4] = Phase I study: serum levels of calcitriol (PK); type: in vivo, human; parameters: unit not given here; conditions: individual patients
Method: Pharmacokinetics (all patients). For the purpose of pharmacokinetic studies (PKs), blood samples will be collected on Day 1 of topical treatment at the following time points: pre-dose, at 2 hours (+/−30 minutes), 4 hours (+/−30 minutes), and 8 hours (+/−1 hour post dose) after a single application on the morning of Day 1. The second application of drug product will be applied 10-14 hours after the initial application and after the 8 hour PK sample. Thereafter, topical application frequency will be twice daily, morning and night. Subsequently, a PK sample will be taken 12 hours (+/−2 hours) after the last dose of each 28 day treatment, before the first application of Day 1 of the next 28 day treatment cycle. This schedule will continue for three consecutive 28 day topical treatment cycles. (PKs will be drawn at weeks 1, 5, 9, and 13. In addition if patients are still on study, a PK will also be drawn at week 54.) Vital signs will be obtained approximately 5 minutes before each blood collection, and the actual collection times will be recorded.
At each collection, collect blood by venipuncture in a serum separator tube(s). Centrifuge at 1200 RCF for 10±5 minutes, and aliquot 1.5 mL of serum each into 2 labeled externally threaded cryogenic vials and immediately freeze. […] Serum samples will be transported with a sufficient amount of dry ice to keep the samples frozen until arrival.
as §1

HEKa cells [5] = assay: Real-time PCR Neuroscience Ion Channels and Transporters array, calcitriol-treated HEKa cells; type: cell-based, human; conditions: 0.1 μg/mL calcitriol, three independent experiments; for KCNB2 mRNA Regulation Pattern: until 24 hours
Method: as §2

C=C1/C(=C\C=C2/CCC[C@]3(C)[C@@H]([C@H](C)CCCC(C)(C)O)CC[C@@H]23)C[C@@H](O)C[C@@H]1O [Calcitriol, (5Z,7E)-9,10-secocholesta-5,7.10(19Hriene-1 a,33.25-triol]
rate of tumor growth [1]: greater reduction in the rate of tumor growth
AEs Related to Study Drug (patients; 5 μg/mL × 1 mL BID): Mild Scalp pain (1)
serious adverse events reported (number) (patients; all dose levels): 25
dose limiting toxicities (DLTs) (patients; human, in vivo): No dose limiting toxicities
serious adverse events unrelated/unlikely to the study drug (patients; human, in vivo, 3 months): 84%
serious adverse events unrelated/unlikely to the study drug (number) (patients; human, in vivo, 3 months): 21
serious adverse events possibly related to the study drug (number) (patients; one patient, 40 μg/mL, passing a renal calculi): 4
maximum tolerated dose (MTD) (patients; up to 80 μg/mL): not detected
DNAJC6 mRNA Regulation Pattern (HEKa cells [2]): Downregulated
HSF4 mRNA Regulation Pattern (HEKa cells [2]): Upregulated at 48 hours
HSPA2 mRNA Regulation Pattern (HEKa cells [2]): Upregulated at 48 hours
HSPB1 mRNA Regulation Pattern (HEKa cells [2]): Down regulated at 48 hours
dermal irritation [3]: no dermal irritation
epidermal / dermal penetration [3]: excellent epidermal penetration without substantial dermal penetration
survival rate vs ethanol vehicle (chloroleukemia C51 cells): No statistically significant difference in the survival rate
Serum Levels of Calcitriol ([4]; 5 μg/mL, Week 1, Hour 0 (pre-dose)): 43.8 and 47.9 and 55.3
Serum Levels of Calcitriol ([4]; 5 μg/mL, Week 1, Hour 2): 38.8 and 48.4 and 46.2
Serum Levels of Calcitriol ([4]; 5 μg/mL, Week 1, Hour 4): 45 and 51 and 58.7
Serum Levels of Calcitriol ([4]; 5 μg/mL, Week 1, Hour 8): 33.2 and 44.4 and 39.5
Serum Levels of Calcitriol ([4]; 5 μg/mL, Week 5, Hour 0): 57.5 and 49.6 and 61.8
Serum Levels of Calcitriol ([4]; 5 μg/mL, Week 9, Hour 0): 63.2 and 46.5
Serum Levels of Calcitriol ([4]; 5 μg/mL, Week 13, Hour 0): 56 and 54.6
Serum Levels of Calcitriol ([4]; 10 μg/mL, Week 1, Hour 0 (pre-dose)): 37.7 and 60 and 32
Serum Levels of Calcitriol ([4]; 10 μg/mL, Week 1, Hour 2): 32.9 and 59 and 33
Serum Levels of Calcitriol ([4]; 10 μg/mL, Week 1, Hour 4): 36.7 and 57 and 31
Serum Levels of Calcitriol ([4]; 10 μg/mL, Week 1, Hour 8): 50 and 28
Serum Levels of Calcitriol ([4]; 10 μg/mL, Week 5, Hour 0): 83.2 and 32 and 44
Serum Levels of Calcitriol ([4]; 10 μg/mL, Week 9, Hour 0): 41
Serum Levels of Calcitriol ([4]; 10 μg/mL, Week 13, Hour 0): 25.9
Serum Levels of Calcitriol ([4]; 20 μg/mL, Week 1, Hour 0 (pre-dose)): 110 and 33.7 and 41 and 46.8 and 40
Serum Levels of Calcitriol ([4]; 20 μg/mL, Week 1, Hour 2): 90 and 38 and 54.1 and 40
Serum Levels of Calcitriol ([4]; 20 μg/mL, Week 1, Hour 4): 85 and 22.4 and 39 and 50.1 and 41
Serum Levels of Calcitriol ([4]; 20 μg/mL, Week 1, Hour 8): 65 and 26.4 and 38 and 53.7 and 39
Serum Levels of Calcitriol ([4]; 20 μg/mL, Week 5, Hour 0): 27.3 and 98 and 56.4
Serum Levels of Calcitriol ([4]; 20 μg/mL, Week 9, Hour 0): 64.9 and 37.7
Serum Levels of Calcitriol ([4]; 40 μg/mL, Week 1, Hour 0 (pre-dose)): 44.7
Serum Levels of Calcitriol ([4]; 40 μg/mL, Week 1, Hour 2): 75.2 and 67.1
Serum Levels of Calcitriol ([4]; 40 μg/mL, Week 1, Hour 4): 56.1 and 68.4
Serum Levels of Calcitriol ([4]; 40 μg/mL, Week 1, Hour 8): 30.1 and 66.9
Serum Levels of Calcitriol ([4]; 40 μg/mL, Week 9, Hour 0): 37.3
Serum Levels of Calcitriol ([4]; 40 μg/mL, Week 13, Hour 0): 92 and 46.7
Serum Levels of Calcitriol ([4]; 60 μg/mL, Week 1, Hour 0 (pre-dose)): 29.1 and 36.4
Serum Levels of Calcitriol ([4]; 60 μg/mL, Week 1, Hour 2): 21.3 and 38.5 and 42
Serum Levels of Calcitriol ([4]; 60 μg/mL, Week 1, Hour 4): 24.7 and 41.2 and 42.9
Serum Levels of Calcitriol ([4]; 60 μg/mL, Week 1, Hour 8): 23.3 and 39.4 and 41.5
Serum Levels of Calcitriol ([4]; 60 μg/mL, Week 5, Hour 0): 65.4 and 81.6
Serum Levels of Calcitriol ([4]; 60 μg/mL, Week 9, Hour 0): 60.7 and 61.5
Serum Levels of Calcitriol ([4]; 60 μg/mL, Week 13, Hour 0): 45
Serum Levels of Calcitriol ([4]; 80 μg/mL, Week 1, Hour 0 (pre-dose)): 28.3 and 29.4 and 55.7
Serum Levels of Calcitriol ([4]; 80 μg/mL, Week 1, Hour 2): 31.8 and 35.6 and 64.8
Serum Levels of Calcitriol ([4]; 80 μg/mL, Week 1, Hour 4): 29.6 and 42.1 and 61.4
Serum Levels of Calcitriol ([4]; 80 μg/mL, Week 1, Hour 8): 36.6 and 58.9
Serum Levels of Calcitriol ([4]; 80 μg/mL, Week 5, Hour 0): 95.5
SLC1A1 mRNA Regulation Pattern (HEKa cells [5]; at 16 hrs): upregulated at
KCNN4 mRNA Regulation Pattern (HEKa cells [5]; at 48 hours): upregulated at 48
KCNB2 mRNA Regulation Pattern (HEKa cells [5]): upregulated
KCNB2 mRNA Regulation Pattern (HEKa cells [5]; listed as Vitamin D3): upregulated until
